Several values for one entry are separate records, joined by “and”; a condition that tells them apart may be missing. Equal entries are not always repeated.

The record followed here is US6489307B1, “Antisense compositions targeted to β1-adrenoceptor-specific mRNA and methods of use” (University of Florida, priority 1998, dated 2002).

One data set has as its target T1, β1-ARs (Rattus norvegicus, UniProt P18090).
T1 construct: membranes were prepared from heart ventricles as previously described; from tissue; host or cells: heart ventricles of SHR
Briefly: β-AR binding assay (ICYP saturation) on heart ventricle membranes after i.v. injection. To be noted: for Bmax, β1: cardiac ventricles of SHRs 4 days after treatment (1 mg/kg i.v.). The class given is in vivo, rat (SHR). As to the method:
(§1) Four days after intravenous injection of saline (n=6) or 1 mg/kg inverted ODN (n=6) or 2, 4, 10 or 18 days after injection of 1 mg/kg β1-AS-ODN (n=24), animals were euthanized, and membranes were prepared from heart ventricles as previously described (Baker and Pitha, 1982). For saturation experiments, 100 μg membrane protein was incubated in triplicate with 6 concentrations of [^125I](^−)-iodocyanopindolol (ICYP, NEN Life Science, 6.25 to 100 pmol/L) in a total volume of 250 μL containing 50 mmol/L Tris-HCl (pH 7.4), 5 mmol/L MgCl2 at 36° C. for 60 minutes. The nonspecific and β2-AR-binding levels were determined in the presence of 1 μmol/L (±)-alprenolol and 150 nmol/L CGP20712A (RBI), respectively. Then the reaction mixture was passed through Whatman (GF/B glass fiber filter using a Brandel harvester, and the bound radioactivity was counted for 1 min.
(§2) Four days after intravenous injection of saline (n=6) or 1 mg/kg inverted ODN (n=6), or 2, 4, 10, 18 days after injection of 1 mg/kg β1-AS-ODN (n=24), animals were sacrificed and membranes were prepared from heart ventricles as previously described (Baker and Pitha, 1982). For saturation studies, 100 μg membrane protein was incubated in triplicate with six concentrations of ^125I-(−)iodocyanopindolol (I-CYP, NEN Life Science, 6.25-100 pM) in a total volume of 250 μl containing 50 mM Tris-HCl (pH 7.4), 5 mM MgCl2 at 36° C. for 60 min. The nonspecific and β2-adrenoceptor binding levels were determined in the presence of 1 μM (±)-alprenolol and 150 nM CGP20712A (RBI), respectively. Then the reaction mixture was passed through Whatman GF/B glass fiber filter using Brandel harvester and the bound radioactivity was counted for one min.

The next data set has as its target T2, β2-ARs (Rattus norvegicus, UniProt P10608).
T2 construct: membranes were prepared from heart ventricles as previously described; from tissue; host or cells: heart ventricles of SHR
The description is as above. The data set is classed as in vivo, rat (SHR). To be noted: for Bmax, β2: cardiac ventricles of SHRs 4 days after treatment (1 mg/kg i.v.). Here is the method: as §1, §2

In a further data set the test system is Total (β1+β2) β-ARs. The data set is described as above. The class given is in vivo, rat (SHR). Conditions: cardiac ventricles of SHRs 4 days after treatment (1 mg/kg i.v.). As to the method:
as §1, §2

A short description of data set [1]: Hematology after repeated injections. The class given is in vivo, rat (SHR). Conditions: for MPV: after repeated administration. Here is the method: (§3) Safety profiles including liver transaminases, hematology, immune response and tissue pathology were investigated during three repeated injections of β1-AS-ODNs for extended periods of time.
Hematological parameters were measured after three repeated injections of β1-AS-ODN. There was no change in total leukocyte count (WBC), platelet count, hematocrit and mean platelet volume (MPV) among three groups (Table 6).

In the next data set the test system is β1-AR mRNA. Briefly: RT-PCR of β1-AR mRNA in myocardium. The class given is in vivo, Sprague-Dawley rats. To be noted: adjusted for GAPDH. As to the method:
Total RNA was isolated from rat myocardium with the single step acid-guanidinum thiocyanate-phenol-chloroform method and quantified (Chomcznski and Sacchi, 1987). One μg of total RNA was reverse transcribed with oligo-dT (Promega) and M-MLV reverse transcriptase (Promega) at 37° C. for one hr. 1.5 μl of RT material was amplified with Taq DNA polymerase (Promega) using a primer pair specific to β1-AR:
PCR™ product was 432 base pairs. For PCR, 35 cycles were used at 95° C. for one minute, 60° C. for one minute, and 72° C. for one min. The RT-PCR™ amplified samples were visualized on 1.8% agarose gels using ethidium bromide. A primer pair of rat GAPDH was used as control:
For PCR™, 35 cycles were used at 95° C. for one min, 60° C. for one min, 72° C. for one min. PCR™ product was 504 base pairs. Relative intensity of bands of interest were analyzed by NSF-300G Scanner (Microtek) (Yang et al., 1998; Li et al., 1999).

The next data set concerns β1-AR protein. Briefly: Western blot of β1-AR protein in myocardium. The data set is classed as in vivo, Sprague-Dawley rats. Conditions: Western analysis. As to the method:
Myocardial tissues were homogenized and lysed in boiling lysis buffer (1% SDS, 0.1% Triton X-100®, and 10 mmol/L Tris-HCl, pH 7.4) and centrifuged at 10,000 RPM for 30 minutes at 4° C. The lysate protein from myocardial tissues (20 μg/lane) was separated by 8% SDS-PAGE using a Bio-Rad Mini-Protean cell, transferred to nitrocellulose membrane (Amersham). After incubation in blocking solution (4% non-fat milk, Sigma), membranes were incubated with 1:1000 dilation primary antibody (polycolonal antibody to β1-AR, Santa Cruz Biotechnology) for overnight at 4° C. Membranes were washed and incubated with 1:2000 dilution second antibody (Amersham) for one hr. The membranes were detected with the ECL system, as described previously (Yang et al, 1998; Li et al., 1999).
A general note: A western blot detects proteins with antibodies after separation by electrophoresis.

For another data set, the system named is β1-AR. Briefly: β-AR density in myocardium after ischemia-reperfusion (binding assay). The class given is in vivo, Sprague-Dawley rats. As to the method: Membrane protein was prepared from left ventricles as previously described (Baker and Pitha, 1982). For saturation studies, 100 μg membrane protein was incubated in triplicate with ^125I-(−)iodocyanopindolol (I-CYP, NEN Life Science, 6.25-100 pM) in a total volume of 250 μl containing 50 mM Tris-HCl (pH 7.4), 5 mM MgCl2 at 36° C. for 60 min. The nonspecific and β2-adrenoceptor binding were determined in the presence of 1 μM (±)-alprenolol and […] (RBI), respectively. Then the reaction mixture was passed through Whatman GF/B glass filter using Brandel harvester and the radioactivity was counted for one min.

Data set [2] is described as follows: Liver transaminases in plasma after repeated injections. Conditions: for ALT / AST: after repeated administration. The class given is in vivo, rat (SHR). Here is the method: as §3
Alanine aminotransferase (ALT) and aspartate aminotransferase (AST) are routinely used as a clinical index for liver function. Their levels increase substantially upon liver damage. SHR were treated with three repeated injections of β1-AS-ODN.

T2 sequence (P10608 whole entry): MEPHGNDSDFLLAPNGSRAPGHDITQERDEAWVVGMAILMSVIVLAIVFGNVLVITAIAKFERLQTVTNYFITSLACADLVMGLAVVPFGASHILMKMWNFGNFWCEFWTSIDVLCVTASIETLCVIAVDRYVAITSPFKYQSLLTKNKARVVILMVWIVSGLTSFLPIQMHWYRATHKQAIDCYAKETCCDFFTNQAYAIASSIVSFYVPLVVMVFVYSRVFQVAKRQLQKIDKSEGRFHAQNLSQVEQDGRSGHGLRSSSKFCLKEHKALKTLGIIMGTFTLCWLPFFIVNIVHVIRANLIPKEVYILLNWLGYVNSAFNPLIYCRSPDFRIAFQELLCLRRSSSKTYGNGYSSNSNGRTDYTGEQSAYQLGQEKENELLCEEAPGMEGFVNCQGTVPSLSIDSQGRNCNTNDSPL
T1 sequence (P18090 whole entry): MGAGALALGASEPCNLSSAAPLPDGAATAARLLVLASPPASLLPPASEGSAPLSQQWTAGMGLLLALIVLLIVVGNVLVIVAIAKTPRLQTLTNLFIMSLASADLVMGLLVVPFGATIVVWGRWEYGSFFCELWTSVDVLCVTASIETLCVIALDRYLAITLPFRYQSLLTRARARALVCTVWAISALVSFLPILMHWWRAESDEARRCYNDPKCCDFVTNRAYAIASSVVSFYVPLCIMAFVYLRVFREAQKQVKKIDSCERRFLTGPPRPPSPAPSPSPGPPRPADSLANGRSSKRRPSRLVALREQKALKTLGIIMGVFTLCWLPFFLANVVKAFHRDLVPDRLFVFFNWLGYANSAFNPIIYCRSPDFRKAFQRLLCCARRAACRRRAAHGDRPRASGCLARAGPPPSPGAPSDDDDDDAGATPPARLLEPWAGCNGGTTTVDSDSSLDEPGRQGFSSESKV

With “5′-AGCCGTACCCGCGCC-3′ (phosphorothioate backbone, further chemistry not given here) [Inverted ODN, 15-mer inverted ODN control, reference compound]”, the “effect on either β-AR subtype” value with β1-ARs (SHR cardiac ventricles, 1 mg/kg i.v., 4 days) is “no effect”. Also, the “Bmax, β1” value with β1-ARs is recorded as 18.1 ± 2.3 fmol/mg. The “Bmax, β2” value in the data set with β2-ARs was determined as 8.7 ± 0.5 fmol/mg. In the data set with Total (β1+β2) β-ARs, the “Bmax, Total (β1+β2)” value is recorded as 26.3 ± 3.0 fmol/mg. Also, the MPV in data set [1] came to 7.2 ± 0.20 fL. Besides, in data set [1] (rat, in vivo), the WBC is 5.75 ± 1.15 10^3/mm^3, the hematocrit is 46.0 ± 0.1% and the platelet is listed as 706 ± 28 10^3/mm^3. In the data set on β1-AR mRNA, the “increase of mRNA for β1-AR in myocardium” value is on record as “not significantly affected”. In the data set on β1-AR protein, the “ischemia-reperfusion-mediated increase in β1-AR protein expression” value was “no effect”. In the data set with β1-AR (rat, in vivo), the “effect on β1-AR density in ischemic-reperfused myocardium” value is given as “no effect”. Further, in data set [2], the ALT came to 30.5 ± 3.8 unit/ml and the AST is 83.0 ± 8.3 unit/ml.
Turning to “5′-CCGCGCCCATGCCGA-3′ (phosphorothioate backbone, further chemistry not given here) [β1-AS-ODN, 15-mer antisense ODN targeted to the AUG start codon of rat β1-AR mRNA]”, the “β1/β2 subtype ratio in the ventricles” value with β1-ARs (after treatment, from ≈70/30) is “≈ 50/50 and 50/50”. Besides, the “Bmax, β1” value with β1-ARs was found to be 10.0 ± 1.2 fmol/mg. In the data set with β1-ARs (single i.v. 1 mg/kg with cationic liposomes 1:2.5), the “duration of significant reduction of β1-AR density in SHR hearts” value is 18 days. Moreover, in the data set with β1-ARs (single i.v. 1 mg/kg with cationic liposomes 1:2.5, day 10), the “drop in cardiac β1-AR density” value was determined as 33%. Moreover, the “drop in cardiac β1-AR density” value with β1-ARs (single i.v. 1 mg/kg with cationic liposomes 1:2.5, day 18) is listed as 29%. Further, the “change in Bmax of β2-ARs” value in the data set with β2-ARs (SHR hearts, single i.v. 1 mg/kg) is “no significant change”. Moreover, in the data set with β2-ARs, the “Bmax, β2” value stood at 9.9 ± 0.5 fmol/mg. The “Bmax, Total (β1+β2)” value in the data set with Total (β1+β2) β-ARs is on record as 19.8 ± 1.8 fmol/mg. Moreover, the MPV in data set [1] stood at 6.93 ± 0.08 fL. Further, in data set [1] (rat, in vivo), the WBC is recorded as 5.48 ± 0.41 10^3/mm^3; the hematocrit was 46.2 ± 0.63%; the platelet is 685 ± 12 10^3/mm^3; the “total leukocyte count (WBC), platelet count, hematocrit and MPV” value is on record as “no change”. For the same substance, the “increase of mRNA for β1-AR in myocardium” value in the data set on β1-AR mRNA is “attenuated the increase”. For the same substance, the “ischemia-reperfusion-mediated increase in β1-AR protein expression” value in the data set on β1-AR protein is on record as “abolished”. Also, the “β1-AR density (Bmax) in ischemic-reperfused myocardium” value with β1-AR (vs 28.7±5.4 in saline-treated rat hearts) was 15.9 ± 1.3 fmol/mg. For the same substance, the “plasma concentrations of ALT and AST vs control groups” value in data set [2] (after each of three repeated injections) was “no significant difference”. In addition, in data set [2], the ALT was 25.7 ± 1.1 unit/ml and the AST is recorded as 74.0 ± 3.7 unit/ml.
